# Data published in ChEMBL document CHEMBL4808220, “Discovery of novel pyrazolopyrimidine derivatives as potent mTOR/HDAC bi-functional inhibitors via pharmacophore-merging strategy” (Bioorg Med Chem Lett, 2021).
# Activity calls are given as the source filed them. The calls are words filed in the database; no cut-off is given here.
# How the values were obtained:
# [1] = target: T1, Serine/threonine-protein kinase mTOR (Homo sapiens, UniProt P42345); assay: Inhibition of mTOR (unknown origin)
# Histone deacetylase 1 = Histone deacetylase 1 (Homo sapiens, UniProt Q13547); assay: Inhibition of HDAC1 (unknown origin)
# [2] = target: T2, Protein deacetylase HDAC6 (Homo sapiens, UniProt Q9UBN7); assay: Inhibition of HDAC6 (unknown origin)
# T2 sequence (Q9UBN7 whole entry): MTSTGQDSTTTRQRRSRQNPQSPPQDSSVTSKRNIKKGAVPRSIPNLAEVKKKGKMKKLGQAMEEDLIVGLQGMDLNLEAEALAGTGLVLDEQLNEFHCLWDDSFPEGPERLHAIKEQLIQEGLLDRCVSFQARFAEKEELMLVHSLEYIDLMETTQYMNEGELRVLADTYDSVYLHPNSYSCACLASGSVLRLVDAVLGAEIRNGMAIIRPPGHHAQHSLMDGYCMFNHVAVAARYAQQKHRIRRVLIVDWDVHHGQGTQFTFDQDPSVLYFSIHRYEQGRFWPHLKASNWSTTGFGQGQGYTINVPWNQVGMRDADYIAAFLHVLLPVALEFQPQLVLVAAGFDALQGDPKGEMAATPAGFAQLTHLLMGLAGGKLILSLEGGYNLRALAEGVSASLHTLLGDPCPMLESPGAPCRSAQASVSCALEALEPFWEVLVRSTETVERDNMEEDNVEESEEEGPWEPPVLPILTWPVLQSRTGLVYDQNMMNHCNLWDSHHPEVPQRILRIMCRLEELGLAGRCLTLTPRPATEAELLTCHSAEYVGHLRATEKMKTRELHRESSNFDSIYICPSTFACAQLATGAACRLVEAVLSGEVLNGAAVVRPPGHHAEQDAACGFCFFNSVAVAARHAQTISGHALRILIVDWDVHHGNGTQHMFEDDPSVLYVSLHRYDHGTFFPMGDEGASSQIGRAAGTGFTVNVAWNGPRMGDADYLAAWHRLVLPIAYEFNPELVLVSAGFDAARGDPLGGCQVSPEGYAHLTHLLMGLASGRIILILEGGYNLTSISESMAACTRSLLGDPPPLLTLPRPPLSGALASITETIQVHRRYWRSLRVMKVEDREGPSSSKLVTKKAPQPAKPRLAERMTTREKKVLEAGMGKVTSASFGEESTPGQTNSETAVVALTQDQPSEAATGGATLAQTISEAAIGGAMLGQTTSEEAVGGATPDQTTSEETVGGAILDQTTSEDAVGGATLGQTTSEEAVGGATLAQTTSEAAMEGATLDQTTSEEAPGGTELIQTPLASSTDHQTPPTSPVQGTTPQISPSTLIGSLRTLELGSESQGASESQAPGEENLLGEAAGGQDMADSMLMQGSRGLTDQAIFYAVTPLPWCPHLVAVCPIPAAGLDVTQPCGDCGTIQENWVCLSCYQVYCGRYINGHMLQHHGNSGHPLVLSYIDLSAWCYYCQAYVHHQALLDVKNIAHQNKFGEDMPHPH
# Histone deacetylase 8 = target: T3, Histone deacetylase 8 (Homo sapiens, UniProt Q9BY41); assay: Inhibition of HDAC8 (unknown origin)
# T3 sequence (Q9BY41 whole entry): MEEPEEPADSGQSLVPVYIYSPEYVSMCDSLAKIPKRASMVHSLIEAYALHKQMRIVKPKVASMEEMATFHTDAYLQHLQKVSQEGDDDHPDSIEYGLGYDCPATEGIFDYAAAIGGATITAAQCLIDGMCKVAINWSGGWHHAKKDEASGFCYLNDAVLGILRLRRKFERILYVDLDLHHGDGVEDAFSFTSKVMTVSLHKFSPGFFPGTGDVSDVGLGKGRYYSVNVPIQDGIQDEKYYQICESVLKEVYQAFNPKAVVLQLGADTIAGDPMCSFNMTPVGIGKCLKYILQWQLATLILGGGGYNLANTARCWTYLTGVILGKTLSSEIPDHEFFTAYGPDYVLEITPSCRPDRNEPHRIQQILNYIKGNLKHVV
# [3] = target: T4, Histone deacetylase (Homo sapiens) (UniProt Q13547+O15379+Q9UBN7+Q92769+Q9UQL6+Q8WUI4+Q9BY41+Q96DB2+P56524+Q9UKV0+Q969S8); assay: Inhibition of HDAC in human MV4-11 cells assessed as increase in acetylation of histone H3 (ac-H3 K9) by Western blot analysis relative to control; format: cell-based
# MV4-11 = assay: Antiproliferative activity against human MV4-11 cells harboring FLT3-ITD mutant assessed as reduction in cell viability; format: functional, cell-based
# [4] = target: T1, Serine/threonine-protein kinase mTOR; assay: Inhibition of mTOR complexes in human MV4-11 cells assessed as suppression of phosphorylation of S6 ribosomal at Ser235/236 residues at 300 nM by Western blot analysis relative to control; format: cell-based
# HCT-116 = assay: Antiproliferative activity against human HCT-116 cells assessed as reduction in cell viability; format: functional, cell-based
# [5] = target: T4, Histone deacetylase (Homo sapiens); assay: Inhibition of HDAC in human MV4-11 cells assessed as increase in acetylation of alpha-tubulin at Lys40 residue by Western blot analysis relative to control; format: cell-based
# A549 = assay: Antiproliferative activity against human A549 cells assessed as reduction in cell viability; format: functional, cell-based
# Histone deacetylase 11 = target: T5, Histone deacetylase 11 (Homo sapiens, UniProt Q96DB2); assay: Inhibition of HDAC11 (unknown origin)
# T5 sequence (Q96DB2 whole entry): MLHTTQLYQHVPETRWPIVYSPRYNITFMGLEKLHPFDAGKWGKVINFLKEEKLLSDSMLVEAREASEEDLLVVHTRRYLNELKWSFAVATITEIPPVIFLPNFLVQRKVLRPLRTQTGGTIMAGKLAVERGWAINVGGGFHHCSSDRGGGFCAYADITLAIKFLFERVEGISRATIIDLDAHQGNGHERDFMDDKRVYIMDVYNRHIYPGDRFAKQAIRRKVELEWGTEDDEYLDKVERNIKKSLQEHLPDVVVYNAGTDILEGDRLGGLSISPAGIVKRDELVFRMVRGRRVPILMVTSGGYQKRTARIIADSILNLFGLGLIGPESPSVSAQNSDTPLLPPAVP
# [6] = target: T1, Serine/threonine-protein kinase mTOR; assay: Inhibition of mTOR complexes in human MV4-11 cells assessed as reduction in p-AKT(Ser473) protein level at 300 nM by Western blot analysis relative to control; format: cell-based
# Sequence of Histone deacetylase 1 (Q13547 whole entry): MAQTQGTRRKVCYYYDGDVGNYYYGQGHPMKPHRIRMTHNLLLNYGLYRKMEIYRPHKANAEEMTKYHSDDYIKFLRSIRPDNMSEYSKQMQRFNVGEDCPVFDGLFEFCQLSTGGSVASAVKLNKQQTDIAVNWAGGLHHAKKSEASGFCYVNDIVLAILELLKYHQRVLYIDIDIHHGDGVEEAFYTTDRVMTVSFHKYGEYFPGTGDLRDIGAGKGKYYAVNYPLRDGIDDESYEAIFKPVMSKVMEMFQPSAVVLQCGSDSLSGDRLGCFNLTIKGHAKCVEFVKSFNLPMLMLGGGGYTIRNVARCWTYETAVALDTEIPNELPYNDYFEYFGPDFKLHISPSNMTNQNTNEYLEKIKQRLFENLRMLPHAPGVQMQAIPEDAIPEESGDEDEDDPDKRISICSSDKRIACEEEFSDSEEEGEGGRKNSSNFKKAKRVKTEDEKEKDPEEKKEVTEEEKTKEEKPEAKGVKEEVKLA
IC50 [1],IC50 (Histone deacetylase 1),Compound,further results
25 nM,11 nM,Nc1nc2cc(-c3nn(Cc4ccc(C(=O)NO)cn4)c4ncnc(N)c34)ccc2o1,–
18 nM,5 nM,Nc1nc2cc(-c3nn(Cc4ccc(C(=O)NO)cc4)c4ncnc(N)c34)ccc2o1,–
> 1000 nM,> 1000 nM,Nc1ccc(-c2nn(CCCCC(=O)NO)c3ncnc(N)c23)cn1,–
27 nM,12 nM,Nc1nc2cc(-c3nn(Cc4ccc(C(=O)NO)s4)c4ncnc(N)c34)ccc2o1,–
0.4 nM,5.9 nM,Nc1nc2cc(-c3nn(CC4CCN(C(=O)c5ccc(C(=O)NO)s5)CC4)c4ncnc(N)c34)ccc2o1,IC50 (MV4-11): 5210 nM; IC50 (HCT-116): > 10000 nM; IC50 (A549): 5900 nM
677 nM,65 nM,Nc1ncnc2c1c(-c1cnc3ccccc3c1)nn2CCCCC(=O)NO,–
> 1000 nM,11 nM,Nc1ncc(-c2nn(CCCCCCC(=O)NO)c3ncnc(N)c23)cn1,–
0.84 nM,12 nM,Nc1nc2cc(-c3nn(CC4CCN(C(=O)c5ccc(C(=O)NO)cc5)CC4)c4ncnc(N)c34)ccc2o1,–
18 nM,> 1000 nM,Nc1nc2cc(-c3nn(Cc4ccc(C(=O)NO)o4)c4ncnc(N)c34)ccc2o1,–

# The remaining lines, values behind:
Compound,IC50 [1],IC50 (Histone deacetylase 1),further results
Nc1ccc(-c2nn(CCCCCCC(=O)NO)c3ncnc(N)c23)cn1,151 nM,7.3 nM,–
Nc1nc2cc(-c3nn(CC4CCN(c5ncc(C(=O)NO)cn5)CC4)c4ncnc(N)c34)ccc2o1,0.49 nM,0.91 nM,IC50 [2]: 86 nM; IC50 (Histone deacetylase 8): 27 nM; inhibition [3]: Dose-Dependent Effect; IC50 (MV4-11): 1740 nM; inhibition [4]: Active; IC50 (HCT-116): 3850 nM; inhibition [5]: Dose-Dependent Effect; IC50 (A549): 2160 nM; IC50 (Histone deacetylase 11): > 1000 nM; inhibition [6]: Active
Nc1nc2cc(-c3nn(CCCCC(=O)NO)c4ncnc(N)c34)ccc2o1,3.76 nM,83 nM,–
Nc1nc2cc(-c3nn(CCCCCCC(=O)NO)c4ncnc(N)c34)ccc2o1,1.7 nM,0.78 nM,IC50 [2]: 1.5 nM; IC50 (Histone deacetylase 8): 21 nM; IC50 (MV4-11): 4130 nM; IC50 (HCT-116): 3780 nM; IC50 (A549): 2860 nM; IC50 (Histone deacetylase 11): > 1000 nM
Nc1ncnc2c1c(-c1cnc3ccccc3c1)nn2CCCCCCC(=O)NO,619 nM,4.1 nM,–
Nc1ncc(-c2nn(CCCCC(=O)NO)c3ncnc(N)c23)cn1,> 1000 nM,479 nM,–
Nc1nc2cc(-c3nn(CC4CCN(C(=O)CCCCC(=O)NO)CC4)c4ncnc(N)c34)ccc2o1,1.9 nM,65 nM,–
